# Measured values: patent publication WO2022059996A1, “Blood circulation micro in-vitro corpuscle-mediated cancer treatment composition” (SEOUL TECHNO HOLDINGS Inc, priority 2020, dated 2022)
# Experiments:
# [1] = test system: YAP; experiment: csEV-induced nuclear localization of YAP in GR-H1993 cells; assay type: cell-based
# [2] = test system: HCT116 cells; experiment: Antiproliferative screening in HCT116 colon cancer cells; assay type: cell-based, human; details: medium containing csEV and compound; inhibitory in both HCT116 and LNCaP-SL
# [3] = test system: GR-H1993 (gefitinib-resistant-H1993) cells; experiment: csEV-mediated proliferation of GR-H1993 cells; assay type: cell-based; details: csEV treatment
# [4] = test system: LNCaP-SL cells; experiment: csEV-mediated LNCaP-SL transwell migration inhibition; assay type: cell-based, human; details: csEV as attractant
# [5] = test system: LNCaP-SL cells; experiment: Antiproliferative screening in metastatic LNCaP-SL prostate cancer cells; assay type: cell-based, human; details: medium containing csEV and compound; inhibitory in both HCT116 and LNCaP-SL
# [6] = test system: YAP; experiment: Immunocytochemical analysis of YAP expression and nuclear localization; assay type: cell-based; details: csEV incubation; KRCT-6j given on top of csEV
# [7] = test system: LNCaP-SL cells; experiment: LNCaP-SL proliferation with docetaxel in the presence or absence of EV; assay type: cell-based, human; details: 50 nM docetaxel; EV-containing normal 10% FBS versus 10% FBS without EVs
# [8] = test system: GR-H1993 cells; experiment: GR-H1993 xenograft mouse model; assay type: in vivo; details: gefitinib 25 mg/kg PO, KRCT-6j 20 mg/kg IP, daily for 28 days, male Athymic BALB/c-nu mice
compound,measurement,setting,value
"Cn1cc(-c2cnc(Nc3cc(Cl)cc(Cl)c3)nc2NC2CCCCC2)cn1 [KRCT-6j, N 4 -Cyclohexyl-N 2-(3,5-dichlorophenyl)-5-(1-methyl-1 H -pyrazol-4-yl)pyrimidine-2,4-diamine]",csEV-induced nuclear localization of YAP,[1],inhibited
same,"proliferation inhibitory response, HCT116",[2],both cell inhibitory responses
same,proliferation of GR-H1993 cells,[3],inhibit only the proliferative effect of csEV-mediated GR-H1993
same,inhibition of csEV-promoted migration of LNCaP-SL cells,[4],inhibited by KRCT-6j in a concentration-dependent manner
same,"proliferation inhibitory response, LNCaP-SL",[5],both cell inhibitory responses
same,YAP expression and nuclear localization,[6],decreased again
CC(=O)O[C@@]12CO[C@@H]1C[C@H](O)[C@@]1(C)C(=O)[C@H](O)C3=C(C)[C@@H](OC(=O)[C@H](O)[C@@H](NC(=O)OC(C)(C)C)c4ccccc4)C[C@@](O)([C@@H](OC(=O)c4ccccc4)[C@H]21)C3(C)C [docetaxel],resistance of LNCaP-SL cells to docetaxel,[7],much more resistant to docetaxel
COc1cc2ncnc(Nc3ccc(F)c(Cl)c3)c2cc1OCCCN1CCOCC1 [gefitinib],"tumor growth, GR-H1993 xenograft",[8],did not affect tumor growth
